Measured values: article PMC12096834, “Antimicrobial peptide plectasin recombinantly produced in Escherichia coli disintegrates cell walls of gram-positive bacteria, as proven by transmission electron and atomic force microscopy” (Journal of Bacteriology, 2025)
Where two headings read alike, the source gives them in different places.

Legend:
[1] = type: physicochemical
Procedure: IMAC elution buffer was exchanged five times against PBS (137 mM NaCl, […], 2.7 mM KCl, and pH 7.4) with nominal 3 kDa cut-off in Amicon Ultra spin vials (Merck, Darmstadt, Germany). The buffer was exchanged discontinuously until the imidazole concentration was below 10 mM. To prevent loss in the form of precipitated plectasin, the CASPON-plectasin was diluted with PBS to a final concentration of 3.2 mg/mL.
The buffer exchanged solution was treated by digesting CASPON-plectasin, using a 1:100 (mol/mol) dilution of the CASPON enzyme per peptide at 37°C for 12 hours. To prevent caspase oxidation and to facilitate the cleavage process, dithiothreitol (DTT) was added to a final concentration of 1 mM DTT. The temperature was maintained by using an Eppendorf Thermoblock (Hamburg, Germany). The CASPON enzyme is a modification of T7AC-6H cpCasp2, which is described by Cserjan-Puschmann et al. ([28]).
The same RP-HPLC method described by Müller et al. ([24]) was employed for CASPON-plectasin/plectasin quantification. For CASPON-plectasin and plectasin, the concentrations 1, 0.5, 0.25, 0.125, and 0.0625 g/L were utilized to construct the calibration curve.
1.6 CASPON®-plectasin cleavage conditions […]
plectasin is limited to […].
Figure S5 Cleavage experiment using CASPON®-plectasin to examine the potential cleavage of plectasin. The calculated possible plectasin was based on the used CASPON®-plectasin mass (4 g/L), assuming no losses and employing stoichiometric principles.
The temperature and CASPONT® enzyme ratio (C. R.) were varied for the cleavage process. […]
the highest achievable plectasin concentration was 1.6 g/L. This outcome is consistent with the findings of a previous study (Mygind et al. 2005), which postulated that the solubility maximum of plectasin is approximately 1.6 g/L. However, an increase in DTT beyond this concentration […]
(1 picture or pasted object on this page, not shown here)

Staphylococcus aureus = test: TEM quantification of cells with visible damage; type: cell-based
Procedure: (§1) Suspensions of gram-positive bacteria were prepared by taking bacterial colonies out of overnight grown agar plates and resuspending them in MHB. The suspension was set to an OD625 extinction of 0.15–0.20 corresponding to a bacterial cell density of approximately 2 × 10^8 CFU/mL. Then, 3 × 1 mL of suspension was transferred into a 2-mL reaction tube and mixed with either plectasin, CASPON-plectasin, or PBS buffer to obtain volume conditions. The concentration for plectasin was 4 x MIC, and CASPON-plectasin was of the same molar quantity as plectasin. After incubation, the bacterial suspensions were washed with PBS three times, using mild centrifugation conditions for each wash cycle (3,000 g, 15 minutes) to avoid cell damage. Prior to sample preparation, mesh copper grids were pretreated with pioloform film and a thin carbon layer. Additionally, the grids were plasma-cleaned for 10 seconds. All samples were prepared by a negative staining procedure. Sample droplets were placed on copper grids for 10 minutes. Afterward, the grids were placed on a 2% glutaraldehyde in 0.1 M phosphate buffer, washed three times with HQ water, and stained with 1% uranyl acetate for 30 seconds. Grids were then analyzed in the TEM FEI Tecnai G^2 200 kV (Thermo Fisher Scientific, Waltham, MA) under high vacuum with 160 kV. For quantification, each condition (untreated, plectasin-treated, and CASPON-plectasin-treated) and each bacterial strain (the four mentioned above) were analyzed using two independent grid squares per biological duplicate, thus yielding a total of four grid squares per condition. Grid squares comprising ≥11 cells were selected for analysis, and the cells were counted and categorized as “no visible damage” or “visible damage”. Percentages and standard deviations were subsequently calculated for each condition. An example of counting the cells can be found in the supplementary material (Fig. S2).

Enterococcus faecalis = test: TEM quantification of cells with visible damage; type: cell-based
Procedure: as §1

Listeria monocytogenes = test: TEM quantification of cells with visible damage; type: cell-based
Procedure: as §1

Streptococcus pneumoniae = test: TEM quantification of cells with visible damage; type: cell-based
Procedure: as §1

CC[C@H](C)[C@@H]1NC(=O)[C@H](CO)NC(=O)[C@H](CCCCN)NC(=O)[C@@H]2CSSC[C@@H](C(=O)N[C@@H](Cc3ccc(O)cc3)C(=O)O)NC(=O)[C@H](CCCCN)NC(=O)[C@@H]3CSSC[C@H](NC(=O)[C@H](CCC(N)=O)NC(=O)[C@H](CCSC)NC(=O)[C@H](CC(=O)O)NC(=O)[C@H](CC(=O)O)NC(=O)[C@H](CCC(=O)O)NC(=O)[C@H](CC(=O)O)NC(=O)[C@H](Cc4c[nH]c5ccccc45)NC(=O)[C@@H]4CCCN4C(=O)CNC(=O)[C@H](CC(N)=O)NC(=O)[C@@H](NC(=O)CNC(=O)[C@H](Cc4ccccc4)NC(=O)CN)CSSC[C@H](NC(=O)[C@H](Cc4ccc(O)cc4)NC(=O)CNC(=O)CNC(=O)[C@H](CCCCN)NC(=O)[C@H](Cc4ccc(O)cc4)NC(=O)CNC(=O)[C@H](CCCCN)NC1=O)C(=O)N[C@@H](C)C(=O)N[C@@H](CCCCN)C(=O)NCC(=O)NCC(=O)N[C@@H](Cc1ccccc1)C(=O)N[C@@H](C(C)C)C(=O)N3)C(=O)N[C@@H](Cc1c[nH]cn1)C(=O)N[C@@H](CC(N)=O)C(=O)N[C@@H](Cc1c[nH]cn1)C(=O)N2 [Plectasin, plectasin]
highest achievable plectasin concentration after CASPON-tag cleavage ([1]; any selected cleavage condition (temperature and CASPON enzyme ratio varied), without DTT, from 4 g/L CASPON-plectasin, preliminary experiments, Fig. S5): 1.5 g/L
solubility of plectasin ([1]; in the CASPON enzyme-based tag removal step (PBS pH 7.4, 37°C)): ~ 1.6 g/L
highest achievable plectasin concentration after CASPON-tag cleavage ([1]; with 1 mM DTT as supporting agent, Fig. S6): 1.6 g/L
No visible damage (%) (Staphylococcus aureus; Grid Square 1): 7.69%
Visible damage (%) (Staphylococcus aureus; Grid Square 1): 92.31%
No visible damage (%) (Staphylococcus aureus; Grid Square 2): 16.67%
Visible damage (%) (Staphylococcus aureus; Grid Square 2): 83.33%
No visible damage (%) (Staphylococcus aureus; Grid Square 3): 5.88%
Visible damage (%) (Staphylococcus aureus; Grid Square 3): 94.12%
No visible damage (%) (Staphylococcus aureus; Grid Square 4): 11.76%
Visible damage (%) (Staphylococcus aureus; Grid Square 4): 88.24%
cells with visible damage (Staphylococcus aureus; negative staining, plectasin 4 x MIC, CASPON-plectasin same molar quantity, mean ± SD of four grid squares (two biological replicates), untreated 10.10, SD): 89.50% ± 4.15%
cells with no visible damage (Staphylococcus aureus; negative staining, plectasin 4 x MIC, CASPON-plectasin same molar quantity, mean ± SD of four grid squares, untreated 89.90% ± 4.88%): 10.50%
No visible damage (%) (Enterococcus faecalis; Grid Square 1): 29.41%
Visible damage (%) (Enterococcus faecalis; Grid Square 1): 70.59%
No visible damage (%) (Enterococcus faecalis; Grid Square 2): 28.57%
Visible damage (%) (Enterococcus faecalis; Grid Square 2): 71.43%
No visible damage (%) (Enterococcus faecalis; Grid Square 3): 21.05%
Visible damage (%) (Enterococcus faecalis; Grid Square 3): 78.95%
No visible damage (%) (Enterococcus faecalis; Grid Square 4): 27.78%
Visible damage (%) (Enterococcus faecalis; Grid Square 4): 72.22%
cells with visible damage (Enterococcus faecalis; negative staining, plectasin 4 x MIC, CASPON-plectasin same molar quantity, mean ± SD of four grid squares (two biological replicates), untreated 4.07, SD): 73.30% ± 3.31%
cells with no visible damage (Enterococcus faecalis; negative staining, plectasin 4 x MIC, CASPON-plectasin same molar quantity, mean ± SD of four grid squares, untreated 95.93% ± 2.41%): 26.70%
No visible damage (%) (Listeria monocytogenes; Grid Square 1): 9.09%
Visible damage (%) (Listeria monocytogenes; Grid Square 1): 90.91%
No visible damage (%) (Listeria monocytogenes; Grid Square 2): 34.48%
Visible damage (%) (Listeria monocytogenes; Grid Square 2): 65.52%
No visible damage (%) (Listeria monocytogenes; Grid Square 3): 18.18%
Visible damage (%) (Listeria monocytogenes; Grid Square 3): 81.82%
No visible damage (%) (Listeria monocytogenes; Grid Square 4): 18.75%
Visible damage (%) (Listeria monocytogenes; Grid Square 4): 81.25%
cells with visible damage (Listeria monocytogenes; negative staining, plectasin 4 x MIC, CASPON-plectasin same molar quantity, mean ± SD of four grid squares (two biological replicates), untreated 6.97, SD): 79.87% ± 9.13%
cells with no visible damage (Listeria monocytogenes; negative staining, plectasin 4 x MIC, CASPON-plectasin same molar quantity, mean ± SD of four grid squares, untreated 93.03% ± 4.81%): 20.13%
No visible damage (%) (Streptococcus pneumoniae; Grid Square 1): 11.11%
Visible damage (%) (Streptococcus pneumoniae; Grid Square 1): 88.89%
No visible damage (%) (Streptococcus pneumoniae; Grid Square 2): 16.22%
Visible damage (%) (Streptococcus pneumoniae; Grid Square 2): 83.78%
No visible damage (%) (Streptococcus pneumoniae; Grid Square 3): 13.33%
Visible damage (%) (Streptococcus pneumoniae; Grid Square 3): 86.67%
No visible damage (%) (Streptococcus pneumoniae; Grid Square 4): 8.33%
Visible damage (%) (Streptococcus pneumoniae; Grid Square 4): 91.67%
cells with visible damage (Streptococcus pneumoniae; negative staining, plectasin 4 x MIC, CASPON-plectasin same molar quantity, mean ± SD of four grid squares (two biological replicates), untreated 15.20, SD): 87.75% ± 2.90%
cells with no visible damage (Streptococcus pneumoniae; negative staining, plectasin 4 x MIC, CASPON-plectasin same molar quantity, mean ± SD of four grid squares, untreated 84.80% ± 3.71%): 12.25%
